Laboratory results reported in article PMC6884456, “Supreme activity of gramicidin S against resistant, persistent and biofilm cells of staphylococci and enterococci” (Scientific Reports, 2019).
Where a SMILES comes first, the peptide text is derived from it. Where no end group is shown, it is not given here. [ ]: non-standard residue; d: D form. Orn = NCCC[C@H](N)C(=O)O

Key:
[1] = test system: S. aureus DSM 1104 SCV biofilms; experiment: Regrowth from pregrown biofilms on hydroxyapatite discs; assay type: cell-based, Staphylococcus aureus; details: 30 h on hydroxyapatite discs, 400 µg/ml, 18 h, regrowth 24 h in Todd-Hewitt broth
Method: To characterize the viability of the biofilm cells, HAD with pregrown biofilms were exposed for 18 hours to supra-MBIC90 concentrations of the AMP, and - after washing - were placed into fresh TH broth. This procedure serves to determine possible planktonic regrowth from the cells that survived the treatment.
Biofilms were grown on standardized hydroxyapatite discs (3D Biotek). The discs were placed in 24-well microtiter plates and inoculated with a cell suspension from the overnight stationary culture, grown in Todd-Hewitt broth and diluted to OD550 = 0.2. After 30 hours of growth at 37 °C without agitation, the discs were placed for 18 hours in solutions containing 400 µg/ml of peptides, dissolved in 10% dimethyl sulfoxide and 150 mM sodium phosphate buffer (pH 7.2). For the control experiments and conventional antibiotics, pure sodium phosphate buffer was used. After the treatment, discs were washed with sodium phosphate buffer, placed into 1 ml of Todd-Hewitt broth and incubated at 37 °C with agitation at 200 rpm for 24 hours.

S. aureus DSM 1104 SCV [2] = assay type: cell-based, Staphylococcus aureus; details: for MIC: S. aureus DSM 1104 SCV, Mueller-Hinton broth, 22 h + 2 h resazurin, 37 °C, 5% CO2, three parallels
Method: For the determination of MIC, the standard broth microdilution procedure[45] was used with a slight modification[29]. Since the peptide stock solutions were prepared in 50% ethanol, the first rows of the 96-well microtiter plates were filled with 50 µl of 2 × concentrated Mueller-Hinton broth to reestablish the normal broth concentration after the addition of 50 µl peptide solutions. The MIC was determined as the lowest concentration that inhibited bacterial growth, judging from bacterial respiration in three parallels for each antibiotic. After incubation of the plates for 22 hours, the redox indicator resazurin (Sigma-Aldrich) was added to the wells (20 µl, 80 µM). The plates were incubated another 2 hours at 37 °C and 5% CO2. Respiration was determined as the difference in the absorption at 570 nm to 600 nm, using a microplate reader FLASHScan 550 (Analytik Jena).

S. aureus DSM 1104 [3] = assay type: cell-based, Staphylococcus aureus; details: DSM 1104
Method: (§5) MBC was determined directly after the MIC evaluation. The 10 µl samples of all 8 dilution rows in the microtiter plates were spotted on square Mueller-Hinton agar plates and incubated overnight at 37 °C and 5% CO2. The MBC was determined as the concentration at which no bacterial colonies were obtained on the two parallel spotted plates.

S. aureus DSM 1104 SCV [4] = assay type: cell-based, Staphylococcus aureus; details: value in parentheses
Method: (§1) This parameter quantifies the ability of the peptides to prevent biofilm outgrowth.
(§2) After co-incubation with peptides at 37 °C and 5% CO2 without agitation for 24 hours, the planktonic cells were washed, and Crystal violet staining was applied.

E. faecalis TRE1 = assay type: cell-based, Enterococcus faecalis; details: TRE1
Method: as §5

physchem = experiment: physchem
Method: (§3) HPLC was performed on an Agilent 1100 system with an ultraviolet diode array detector. […] Binding measurements were performed using Regis Technologies IAM.PC.DD2 (100 × 4.6 mm), HiChrom Chiralpak-HSA (50 × 3 mm) and HiChrom Chiralpak-AGP (50 × 3 mm) columns. […] Retention times were converted to log k and % binding, using calibration routines described in[72].

E. faecalis DSM 2570 [5] = assay type: cell-based, Enterococcus faecalis; details: DSM 2570
Method: as §5

Danio rerio embryos = experiment: Acute toxicity in Danio rerio embryos; assay type: in vivo; details: zebrafish embryos 72 hpf, E3 medium, heart beat; for 1h LD50: 1 hour exposure; for 3h LD50: 3 hours exposure
Method: Experiments were performed in accordance with the relevant OECD testing guidelines[73] and German animal protection standards. Wild type D. rerio embryos were obtained at the European Zebrafish Resource Center (Karlsruhe). Fertilized eggs (6 hpf) were raised in 4 ml of embryonic medium (E3) at 28 °C until 72 hpf (6-well plate, 20 eggs/well). Embryos were transferred into flat-bottom glass vials (E3, 1 ml, 15–20 embryos/vial). Peptides were added as 20 µl aliquots in 10% dimethyl sulfoxide in serial 2-fold dilutions. Toxicity was expressed as the concentration at which 50% of the embryos were visually observed to die (measured at 1 and 3 hours exposure) by identifying the heart beat.

S. aureus MRSA4 = assay type: cell-based, Staphylococcus aureus; details: MRSA4
Method: as §5

S. aureus MRSA9 SCV = details: Mueller-Hinton broth, 22 h + 2 h resazurin, 37 °C, 5% CO2, three parallels
Method: (§4) For the determination of MIC, the standard broth microdilution procedure[45] was used with a slight modification. Since the peptide stock solutions were prepared in 50% ethanol, the first rows of the 96-well microtiter plates were filled with 50 µl of 2 × concentrated Mueller-Hinton broth to reestablish the normal broth concentration after the addition of 50 µl peptide solutions. The MIC was determined as the lowest concentration that inhibited bacterial growth, judging from bacterial respiration in three parallels for each antibiotic. After incubation of the plates for 22 hours, the redox indicator resazurin (Sigma-Aldrich) was added to the wells (20 µl, 80 µM). The plates were incubated another 2 hours at 37 °C and 5% CO2. Respiration was determined as the difference in the absorption at 570 nm to 600 nm, using a microplate reader FLASHScan 550 (Analytik Jena).

S. aureus MRSA8 SCV [6] = details: Mueller-Hinton broth, 22 h + 2 h resazurin, 37 °C, 5% CO2, three parallels
Method: as §4

E. faecalis DSM 2570 [7] = details: DSM 2570, 24 h
Method: as §1, §2

E. faecalis WW6 [8] = details: WW6, 24 h
Method: as §1, §2

S. aureus DSM 1104 [9] = details: DSM 1104, 24 h
Method: as §1, §2

E. faecalis TRE2 [10] = details: TRE2, 24 h
Method: as §1, §2

S. aureus MRSA8 SCV [11] = details: value in parentheses
Method: as §1, §2

E. faecium VRE1 = assay type: cell-based, Enterococcus faecium; details: VRE1
Method: as §5

[12] = test system: α1-acid glycoprotein (AGP); experiment: AGP binding, biomimetic chromatography
Method: as §3

E. faecalis TRE2 [13] = assay type: cell-based, Enterococcus faecalis; details: TRE2
Method: as §5

E. faecium VRE2 = assay type: cell-based, Enterococcus faecium; details: VRE2
Method: as §5

E. faecalis WW6 [14] = assay type: cell-based, Enterococcus faecalis; details: WW6
Method: as §5

E. faecalis TRE4 = assay type: cell-based, Enterococcus faecalis; details: TRE4
Method: as §5

human erythrocytes = experiment: Haemolysis assay; assay type: cell-based; details: red cells of human
Method: Haemolytic activity was determined with a serial 2-fold dilution assay. Citrate phosphate dextrose-stabilized human erythrocyte suspensions were obtained from Karlsruhe Municipal Hospital. […] The mixture was pelleted (13 000 rpm, 10 min, 4 °C), and the absorbance of the supernatant was recorded at 540 nm vs. reaction buffer. The extent of haemolysis was related to the action of 0.1% Triton X-100 (100%).

E. faecalis WW4 = assay type: cell-based, Enterococcus faecalis; details: WW4
Method: as §5

[15] = molecular target: human serum albumin (HSA) (Homo sapiens, UniProt P02768); experiment: HSA binding, biomimetic chromatography
human serum albumin (HSA), sequence (P02768 25-609): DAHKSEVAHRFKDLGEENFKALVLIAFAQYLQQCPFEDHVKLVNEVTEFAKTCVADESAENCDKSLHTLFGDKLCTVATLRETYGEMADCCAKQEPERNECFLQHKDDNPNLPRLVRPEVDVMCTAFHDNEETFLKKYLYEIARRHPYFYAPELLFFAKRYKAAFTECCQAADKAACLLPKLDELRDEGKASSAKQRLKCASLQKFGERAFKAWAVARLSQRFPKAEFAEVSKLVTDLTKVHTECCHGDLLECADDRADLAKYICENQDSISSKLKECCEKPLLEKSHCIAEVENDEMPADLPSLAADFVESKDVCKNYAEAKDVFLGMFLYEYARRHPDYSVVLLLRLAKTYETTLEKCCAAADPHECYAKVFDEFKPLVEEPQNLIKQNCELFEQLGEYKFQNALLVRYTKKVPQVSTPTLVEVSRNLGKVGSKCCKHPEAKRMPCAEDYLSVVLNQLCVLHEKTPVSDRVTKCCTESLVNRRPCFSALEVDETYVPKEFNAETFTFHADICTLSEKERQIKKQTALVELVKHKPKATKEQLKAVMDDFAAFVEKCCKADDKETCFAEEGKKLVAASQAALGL
Method: as §3

S. aureus MRSA3 = assay type: cell-based, Staphylococcus aureus; details: MRSA3
Method: as §5

S. aureus MRSA9 = assay type: cell-based, Staphylococcus aureus; details: MRSA9
Method: as §5

S. aureus DSM 1104 SCV [16] = assay type: cell-based, Staphylococcus aureus; details: spotted from MIC plates on Mueller-Hinton agar, overnight, no colonies
Method: MBC was determined directly after the MIC evaluation.

S. aureus MRSA538 SCV = details: Mueller-Hinton broth, 22 h + 2 h resazurin, 37 °C, 5% CO2, three parallels
Method: as §4

subtilisin = details: serine protease isolated from B. subtilis; cited from earlier work
Excerpt: This intrinsic cell-uptake activity has already been explored in eukaryotic cells to specifically target mitochondria with GS derivatives. In the context of prokaryotic cells, together with the ability to bind certain nucleotides and small phosphorylated molecules[29]–[33], GS thus seems to be capable ...

enterococci = assay type: cell-based, Enterococcus faecalis, Enterococcus faecium; details: 22 h

| Compound | MBC (S. aureus DSM 1104 [3]) | MBIC90 (S. aureus DSM 1104 SCV [4]) | MBC (E. faecalis TRE1) | chromatographic logD (physchem; pH 2.6) | chromatographic logD (physchem; pH 7.4) | chromatographic logD (physchem; pH 10.5) | MBC (E. faecalis DSM 2570 [5]) | 1h LD50 (Danio rerio embryos) | 3h LD50 (Danio rerio embryos) | MBC (S. aureus MRSA4) | MIC (S. aureus MRSA9 SCV) | MIC (S. aureus MRSA8 SCV [6]) | MBIC90 (E. faecalis DSM 2570 [7]) | MBIC90 (E. faecalis WW6 [8]) | MBIC90 (S. aureus DSM 1104 [9]) | MBIC90 (E. faecalis TRE2 [10]) | MBIC90 (S. aureus MRSA8 SCV [11]) | MBC (E. faecium VRE1) | MBC (E. faecalis TRE2 [13]) | MIC (S. aureus DSM 1104 SCV [2]) | further results |
| --- | --- | --- | --- | --- | --- | --- | --- | --- | --- | --- | --- | --- | --- | --- | --- | --- | --- | --- | --- | --- | --- |
| Cc1onc(-c2ccccc2)c1C(=O)N[C@@H]1C(=O)N2[C@@H]1SC(C)(C)[C@@H]2C(=O)O [OXA, oxacillin] |  |  |  |  |  |  |  |  |  |  |  |  |  |  |  |  |  |  |  |  | Biofilm regrowth after treatment [1]: tolerant; Concentration effective against the planktonic cells (SI Table S1) (S. aureus DSM 1104 SCV [2]; DSM 1104 SCV planktonic cells, standard broth microdilution): 0.25 µg/mL |
| FVQWFSKFLGRIL-NH2 [TL, temporin L] | 16 (10) µg/ml | 20 µM | 32 (20) µg/ml | 0.65 | 2.92 | 4.95 | 16 (10) µg/ml | 7 µg/mL | 7 µg/mL | 32 (20) µg/ml | 8 (5) µg/ml | 8 (5) µg/ml | 39 µM | 78 µM | 5 µM | 78 µM | 5 µM | 16 (10) µg/ml | 32 (20) µg/ml | 8 (5) µg/ml | log k AGP ([12]; pH 7.4): 1.23; MBC (E. faecium VRE2): 16 (10) µg/ml; MBC (E. faecalis WW6 [14]): 32 (20) µg/ml; MBC (E. faecalis TRE4): 32 (20) µg/ml; Haemolysis at 5 μM (human erythrocytes): 57%; Haemolysis at 10 μM (human erythrocytes): 99%; MBC (E. faecalis WW4): 32 (20) µg/ml; log k HSA ([15]; pH 7.4): 1.68; MBC (S. aureus MRSA3): 32 (20) µg/ml; MBC (S. aureus MRSA9): 32 (20) µg/ml |
| CC(C)C[C@@H]1NC(=O)[C@H](CCCN)NC(=O)[C@H](C(C)C)NC(=O)[C@@H]2CCCN2C(=O)[C@@H](Cc2ccccc2)NC(=O)[C@H](CC(C)C)NC(=O)[C@H](CCCN)NC(=O)[C@H](C(C)C)NC(=O)[C@@H]2CCCN2C(=O)[C@@H](Cc2ccccc2)NC1=O [GS, gramicidin S] (cyclo(V[Orn]L[dF]PV[Orn]L[dF]P)) | 8 (7) µg/ml | 14 µM | 16 (14) µg/ml | 1.5 | 3.51 | 7.52 | 8 (7) µg/ml | 8 µg/mL | 5 µg/mL | 16 (14) µg/ml | 4 (4) µg/ml | 4 (4) µg/ml | 7 µM | 14 µM | 4 µM | 14 µM | 4 µM | 8 (7) µg/ml | 16 (14) µg/ml | 4 (4) µg/ml | MBC (S. aureus DSM 1104 SCV [16]): 8 (7) µg/ml; MIC (S. aureus MRSA538 SCV): 8 (7) µg/ml; Degradation by protease (subtilisin): effective in degrading; Bound AGP ([12]; Chiralpak-AGP column, 50 mM ammonium acetate pH 7.4, 0–35% 2-propanol gradient, calibrated retention times, UV): 92.92%; log k AGP ([12]; Chiralpak-AGP column, pH 7.4, 0–35% 2-propanol gradient, value in parentheses): 1.06; MBC (E. faecium VRE2): 8 (7) µg/ml; MBC (E. faecalis WW6 [14]): 16 (14) µg/ml; MBC (E. faecalis TRE4): 8 (7) µg/ml; Haemolysis at 5 μM (human erythrocytes): 7%; Haemolysis at 10 μM (human erythrocytes): 54%; MBC (E. faecalis WW4): 16 (14) µg/ml; MIC against enterococci (enterococci): approximately 8 µg/ml; Bound HSA ([15]; Chiralpak-HSA column, 50 mM ammonium acetate pH 7.4, 0–35% 2-propanol gradient, calibrated retention times, UV): 97.45%; log k HSA ([15]; Chiralpak-HSA column, pH 7.4, 0–35% 2-propanol gradient, value in parentheses): 1.44; MBC (S. aureus MRSA3): 16 (14) µg/ml; MBC (S. aureus MRSA9): 16 (14) µg/ml |
